Test results from patent US10004730B2, “Small molecules targeting androgen receptor nuclear localization and/or level in prostate cancer” (University of Pittsburgh-Of the Commonwealth System of …, priority 2011, dated 2018).

Experiments:
[1] = molecular target: T1, GFP-AR (Homo sapiens, UniProt P10275); test: Localization of transiently transfected GFP-AR by fluorescence microscopy; type: cell-based; conditions: transfected C4-2 cells, complete RPMI with 10% FBS, overnight treatment
T1 construct: expressed in transfected cells; also PC3 and LNCaP (transient)
T1 sequence (P10275 1-920): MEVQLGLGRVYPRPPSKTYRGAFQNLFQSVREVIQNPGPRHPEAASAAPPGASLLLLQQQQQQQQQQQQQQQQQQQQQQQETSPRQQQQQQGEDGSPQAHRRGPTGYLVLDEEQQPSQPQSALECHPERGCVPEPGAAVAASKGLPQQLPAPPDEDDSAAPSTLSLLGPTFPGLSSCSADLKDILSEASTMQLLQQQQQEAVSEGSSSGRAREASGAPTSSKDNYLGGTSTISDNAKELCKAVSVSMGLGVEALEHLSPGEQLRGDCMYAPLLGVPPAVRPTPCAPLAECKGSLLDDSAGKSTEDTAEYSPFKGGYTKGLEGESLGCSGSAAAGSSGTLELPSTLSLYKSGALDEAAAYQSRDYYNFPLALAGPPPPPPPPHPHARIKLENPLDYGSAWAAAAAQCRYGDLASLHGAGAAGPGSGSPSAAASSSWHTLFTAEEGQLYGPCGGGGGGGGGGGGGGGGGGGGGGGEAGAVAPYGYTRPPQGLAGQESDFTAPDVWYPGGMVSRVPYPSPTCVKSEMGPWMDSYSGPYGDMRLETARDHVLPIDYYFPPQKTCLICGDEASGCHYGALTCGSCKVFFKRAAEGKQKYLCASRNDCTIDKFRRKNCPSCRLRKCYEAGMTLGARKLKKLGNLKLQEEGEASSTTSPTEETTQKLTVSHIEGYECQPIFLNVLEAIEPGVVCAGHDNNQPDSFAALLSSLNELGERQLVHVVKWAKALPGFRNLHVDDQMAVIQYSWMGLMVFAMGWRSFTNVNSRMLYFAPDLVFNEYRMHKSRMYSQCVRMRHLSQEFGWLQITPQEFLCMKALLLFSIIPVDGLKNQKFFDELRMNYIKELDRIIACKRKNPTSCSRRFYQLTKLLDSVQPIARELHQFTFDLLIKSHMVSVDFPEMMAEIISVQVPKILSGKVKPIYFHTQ
Experimental: FIGS. 2A and 2B. Localization of GFP-AR in AR-negative PC3, androgen-sensitive LNCaP, and CRPC C4-2 cells. […] PC3, LNCaP, and C4-2 cells were transfected with GFP-AR and localization was assessed in ligand-free conditions or in the presence of mibolerone by fluorescence microscopy within 24 hours of transfection. The results in FIG. 2B are from five transfections for each cell line in the absence of androgen. At least 50 cells were counted after each transfection. Error bars represent ±SEM.
FIGS. 3A and 3B. […] FIG. 3A. […] Localization was assessed by fluorescence microscopy 4 hours after treatment. FIG. 3B.
FIGS. 6A, 6B, 6C and 6D. FIG. 6A. […] FIG. 6B. […] C4-2 cells were transfected with GFP-AR and subcellular localization of GFP-AR was determined after overnight treatment using fluorescent microscopy. FIG. 6C. Quantitative analysis of results in FIG. 6B. […] FIG. 6D. […] Endogenous AR was detected by immunofluorescent staining using AR antibody N-20 (Santa Cruz Biotechnology). Nuclei were stained with Hoechst.
A prerequisite for AR transcriptional activity is its nuclear localization. To determine whether the subcellular localization of AR was altered during the progression to castration-resistance, AR-negative PC3 prostate cancer cells, androgen-sensitive LNCaP cells and castration-resistant C4-2 cells were transfected with AR tagged to green fluorescent protein (GFP) and localization was assessed by fluorescence microscopy in hormone-free conditions.
Hsp90 plays an important role in ligand-induced AR nuclear translocation. […] To determine if the effect of hsp90 inhibition on endogenous AR in C4-2 cells was similar to its effect on transfected GFP-AR, immunofluorescence experiments were performed.

[2] = tested on: AR transactivation of PSA-luciferase reporter; test: PSA-luciferase reporter, full-length AR, C4-2 cells; type: cell-based; conditions: 24 hours
Experimental: FIGS. 13A-C. Effect of SID 3712502 on the expression of AR and PSA in 22Rv1 (FIG. 13A) cells. […] The cells in RPMI 1640 complete medium were treated with SID 3712502 or vehicle DMSO at the indicated concentrations (uM) for 48 h. The cells were then harvested in RIPA buffer for Western blot analysis using antibodies for AR, PSA, and GAPDH. GAPDH was included as a loading control. FIG. 13B. SID 3712502 inhibits AR transactivation of PSA-luciferase reporter. C4-2 cells were transfected with PSA6.1-Luc, GFP-AR, and pRL-CMV and then treated with indicated doses of SID 3712502 for 24 hours. FIG. 13C. SID 3712502 inhibits transactivation of PSA-luciferase reporter by AR(1-665), which lacks LBD. PC3 cells were transfected with GFP-NAR and PSA6.1 Luc overnight prior to treatment with 10 μM SID 3712502 (SID) or DMSO (C) for 24 hours. For luciferase assays, cells were lysed with passive lysis buffer (Promega) and both Firefly and Renilla luciferase activities were read using a Dual-Luciferase Reporter Assay kit (Promega) on a LmaxII384 luminometer (Molecular Devices). Firefly luciferase values were normalized to Renilla (pRL-CMV) or protein of cell lysates. Plotted values represent averaged normalized Firefly luciferase activities, each performed in triplicate, relative to DMSO control. One-way ANOVA was performed with a Bonferroni's Multiple Comparison posttest *** p<0.0001 (C). […]

[3] = tested on: LNCaP cells; test: BrdU incorporation, LNCaP; type: cell-based; conditions: 48 hrs
Experimental: (§1) FIGS. 14A-F. Effect of SID 3712502 at indicated concentrations on BrdU incorporation in cultured AR-positive LNCaP (FIG. 14A), C4-2 (FIG. 14B), 22Rv1 (FIG. 14C), LAPC4 (FIG. 14D) cells, and AR-negative DU145 (FIG. 14E) and PC3 (FIG. 14F) cells. Cells were plated in 12-well plates at 2,500 cell per well in RPMI 1640 complete medium. After 24 hrs, the cells were treated with SID 3712502 at the indicated concentrations for 48 hrs and BrdU incorporation was assayed according to manufacturer's instructions (Invitrogen BrdU staining kit; catalog #: 93-3943). The percentage of BrdU-positive cells was determined and then normalized to generate relative BrdU index. Ctrl=DMSO control.

[4] = tested on: C4-2 cells; test: BrdU incorporation, C4-2; type: cell-based; conditions: C4-2, 48 hrs
Experimental: as §1

[5] = tested on: 22Rv1 cells; test: BrdU incorporation, 22Rv1; type: cell-based; conditions: 22Rv1, 48 hrs
Experimental: as §1

[6] = Pilot toxicity experiment in mice; type: in vivo; conditions: all doses tested, highest 100 mg/kg; data not shown
Experimental: […]. […] A pilot experiment was also performed testing the toxicity of SID 3712502 in mice.

SMILES: Cc1cccc(N2CCN(C(=O)CSCc3c(C)noc3C)CC2)c1C [SID 3712502, 2-[(3,5-dimethyl-1,2-oxazol-4-yl)methylsulfanyl]-1-[4-(2,3-dimethylphenyl)piperazin-1-yl]ethanone]
- GFP-AR nuclear localization [1]: effectively inhibited
- transactivation activity of full-length AR (PSA-luciferase) [2]: can inhibit the transactivation activity
- proliferation (BrdU incorporation) [3]: inhibited the proliferation
- proliferation (BrdU incorporation) [4]: inhibited the proliferation
- proliferation (BrdU incorporation) [5]: inhibited the proliferation
- toxicity in mice [6]: no identifiable effect
